According to US10961215B2, “N-aryl and N-heteroaryl piperidine derivatives as liver X receptor beta agonists, compositions, and their use” (Merck Sharp & Dohme Corp., priority 2016, dated 2021):

Tests used:
[1] = molecular target: T1, GST tagged LXRbeta LBD (ligand binding domain) (Homo sapiens, UniProt P55055); assay: LanthaScreen TR-FRET Liver X Receptor Coactivator Assay, LXR beta-LBD (co-activator recruitment; IP and % Emax relative to T0901317); type: biochemical; settings: for EC50: Inflection Point of co-activator recruitment, LXR beta-LBD, TR-FRET; for Emax: efficacy at max dose in relation to reference T0901317, LXR beta-LBD, read-out: LXR beta actiivty at max dose (%)
T1 construct: purchased Invitrogen pv4658.pps
T1 sequence (P55055 222-460 limits assumed): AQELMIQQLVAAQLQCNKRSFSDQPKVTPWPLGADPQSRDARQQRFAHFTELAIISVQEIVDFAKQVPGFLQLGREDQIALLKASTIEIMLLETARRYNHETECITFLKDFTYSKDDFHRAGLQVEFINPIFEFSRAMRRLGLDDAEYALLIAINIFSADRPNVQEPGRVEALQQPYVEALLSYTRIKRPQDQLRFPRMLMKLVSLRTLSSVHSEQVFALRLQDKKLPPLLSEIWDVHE
Outline: (§1)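 Compounds were first combined with the GST-LBD protein. A premixed fluorescein coactivator peptide and terbium-labelled anti-GST antibody was then added. Plates were incubated at room temperature and TR-FRET measured.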

[2] = molecular target: T2, GST tagged LXRalpha LBD (ligand binding domain) (Homo sapiens, UniProt Q13133); assay: LanthaScreen TR-FRET Liver X Receptor Coactivator Assay, LXR alpha-LBD (co-activator recruitment; IP and % Emax relative to T0901317); type: biochemical; settings: for LXR alpha IP (nM) / EC50: Inflection Point of co-activator recruitment, LXR alpha-LBD, TR-FRET; for Emax: efficacy at max dose in relation to reference T0901317, LXR alpha-LBD, read-out: LXR alpha actiivty at max dose (%)
T2 construct: purchased Invitrogen pv4655
T2 sequence (Q13133 209-447 limits assumed): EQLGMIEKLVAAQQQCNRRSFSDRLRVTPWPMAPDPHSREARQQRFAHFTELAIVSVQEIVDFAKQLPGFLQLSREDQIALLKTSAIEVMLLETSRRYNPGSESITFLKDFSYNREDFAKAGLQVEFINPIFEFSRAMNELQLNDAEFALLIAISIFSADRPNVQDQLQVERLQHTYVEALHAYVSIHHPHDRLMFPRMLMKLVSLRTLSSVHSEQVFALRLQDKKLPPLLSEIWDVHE
Outline: as §1

Compound	EC50 [1]	Emax [1]	LXR alpha IP (nM) [2]	Emax [2]	EC50 [2]
CCOc1cccc([C@@](O)(C(=O)N(C)CCCC2CCN(c3ccc(C(=O)N(C)C)c(Cl)c3)CC2)C(F)(F)F)c1 [Example 4-2, (R)-2-chloro-4-(4-(3-(2-(3-ethoxyphenyl)-3,3,3-trifluoro-2-hydroxy-N-methylpropanamido)propyl)piperidin-1-yl)-N,N-dimethylbenzamide]	217 nM	49%	No IP	0%	–
COc1cccc([C@@](O)(C(=O)N(C)CCCC2(C)CCN(c3ccc(C(=O)N(C)C)c(Cl)c3)CC2)C(F)(F)F)c1 [Example 9-6, (R)-2-chloro-N,N-dimethyl-4-(4-methyl-4-(3-(3,3,3-trifluoro-2-hydroxy-2-(3-methoxyphenyl)-N-methylpropanamido)propyl)piper-idin-1-yl)benzamide]	136 nM	20%	No IP	0%	–
CC(C)=C(C(=O)N(C)CCCC1CCN(c2ccc(C(=O)N(C)C)c(Cl)n2)CC1)c1ccccc1 [Example 1-61, 2-chloro-6-(4-(3-(N,3-dimethyl-2-phenylbut-2-enamido)propyl)piperidin-1-yl)-N,N-dimethylnicotinamide]	1380 nM	23%	No IP	0%	–
COc1cccc([C@@](O)(C(=O)NC[C@H](C)CC2CCN(c3ccc(C(=O)N(C)C)c(Cl)n3)CC2)C(F)(F)F)c1 [Example 3-5]	156 nM	57%	–	22%	2890 nM
CN(C)C(=O)c1ccc(N2CCC(CCCN(C)C(=O)[C@](N)(c3ccccc3)C(F)(F)F)CC2)nc1Cl [Example 1-29, (R)-6-(4-(3-(2-amino-3,3,3-trifluoro-N-methyl-2-phenylpropanamido)propyl)piperidin-1-yl)-2-chloro-N,N-dimethylnicotinamide]	396 nM	51%	No IP	8%	–
CN(C)C(=O)c1ccc(N2CCC(CCCNC(=O)[C@@](O)(c3ccccc3)C(F)(F)F)CC2)nc1Cl [Example 5-9, (S)-2-chloro-N,N-dimethyl-6-(4-(3-(3,3,3-trifluoro-2-hydroxy-2-phenylpropanamido)propyl)piperidin-1-yl) nicotinamide]	165 nM	101%	–	9%	2280 nM
CNC(=O)c1ccc(N2CCC3(CC2)C[C@H]3CCN(C)C(=O)[C@](O)(c2ccccc2)C(F)(F)F)cc1Cl (single isomer, unassigned) [Example 7-7]	22 nM	64%	–	42%	504 nM
COc1cccc([C@@](O)(C(=O)N(C)C[C@@H]2C[C@@H]2C2CCN(c3ccc(C(=O)N(C)C)c(Cl)n3)CC2)C(F)(F)F)c1 [Example 15-3, 2-chloro-N,N-dimethyl-6-(4-((1R,2R)-2-(((R)-3,3,3-trifluoro-2-hydroxy-2-(3-methoxyphenyl)-N-methylpropanamido)methyl)cyclopropyl)piperidin-1-yl)nicotinamide]	17 nM	58%	No IP	10%	–
CC(C)C(O)(C(=O)N(C)CCCC1CCN(c2ccc(C(=O)N(C)C)c(Cl)c2)CC1)C(F)(F)F (stereo not shown) [Example 4-8, 2-chloro-4-(4-(3-(2-hydroxy-N,3-dimethyl-2-(trifluoromethyl)butanamido)propyl)piperidin-1-yl)-N,N-dimethyl-benzamide]	471 nM	73%	–	23%	3350 nM
CN(C)C(=O)c1ccc(N2CCC([C@H]3C[C@H]3CN(C)C(=O)[C@](O)(c3cccc(OC4CC4)c3)C(F)(F)F)CC2)nc1Cl [Example 15-8, 2-chloro-6-(4-((1R,2R)-2-(((R)-2-(3-cyclopropoxyphenyl)-3,3,3-trifluoro-2-hydroxy-N-methylpropanamido)methyl)cyclopropyl)piperidin-1-yl)-N,N-dimethylnicotinamide]	74 nM	59%	No IP	0%	–
